# Assay results from patent US20240101699A1, “MODULATION OF CD46 CELL SURFACE EXPRESSION AND THERAPEUTIC USE THEREOF” (The Regents of the University of California, priority 2021, published 2024).
# T1: CD46 (human, UniProt P15529 35-392)
# T1 construct: whole, on cells; also called cell surface CD46
# T1 sequence (looked up): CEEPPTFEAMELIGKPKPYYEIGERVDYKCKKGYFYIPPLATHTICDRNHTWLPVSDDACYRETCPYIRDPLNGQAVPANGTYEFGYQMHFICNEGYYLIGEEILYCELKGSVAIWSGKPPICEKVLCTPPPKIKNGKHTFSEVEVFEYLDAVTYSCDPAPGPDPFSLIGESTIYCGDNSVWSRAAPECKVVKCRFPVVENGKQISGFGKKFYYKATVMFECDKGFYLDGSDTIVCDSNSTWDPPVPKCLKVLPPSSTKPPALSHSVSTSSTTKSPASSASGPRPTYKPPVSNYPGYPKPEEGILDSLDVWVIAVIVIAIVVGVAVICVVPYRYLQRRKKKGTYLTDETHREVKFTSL
# Legend:
# [1] = test system: CD46 cell surface expression on RPMI8226 cells; assay: CD46 cell surface expression on RPMI8226 cells by FACS / flow cytometry; assay type: cell-based; settings: for CD46 cell surface expression (MFI, flow cytometry): RPMI8226, 7 days 37° C.; for CD46 upregulation on RPMI8226 cells: 7-day exposure to varying concentrations, FACS on day-7; for CD46 expression (FACS): RPMI8226 cells treated with IMiDs for 3 and 10 days
# Protocol: Example 1: CD46 upregulation by exposure to pomalidomide and lenalidomide (FIGS. 1-2). The effect of pomalidomide and lenalidomide exposure to multiple myeloma (RPMI8226) cells was studied. RPMI8226 cells were treated with IMiDs (Pomalidomide and Lenalidomide) for 3 and 10 days (FIG. 1). CD46 expression was analyzed by FACS. CD38 was also measured as a reference. IMiDs-induced cell surface upregulation was observed only to selective antigens, e.g., CD46 but not CD38.
# FACS was performed on day-7. […] FACS was performed on day-14.
# FIG. 6: The multiple myeloma cell line RPMI8226 was incubated with 10 μM pomalidamide (pom) for 14 days, washed, and further incubated with 10 nM dexamethasone (dex) for 7 days. Cell surface CD46 expression was assessed by flow cytometry. MFI: median fluorescence intensity. Multiple group comparison was performed using One-way ANOVA. ** p<0.01; ****p<0.0001.
# Methods: RMPI8226 cells were exposed to varying concentrations of the Stat3 inhibitor C188-9 and the glucocorticoid receptor inhibitor mifepristone for 7 days at 37° C. in culture media, and cell surface CD46 expression is detected by flow cytometry using the anti-CD46 antibody YS5 followed by AlexaFluo-617 labeled anti-human Fc secondary antibody. MFI (median fluorescence intensity) was recorded and analyzed by One-way ANOVA.
# [2] = target: T1, CD46; assay: flow cytometry on RPMI8226 cells with a labelled anti-human Fc secondary antibody
# Protocol: MFI (median fluorescence intensity) was recorded and analyzed by One-way ANOVA.
molecule,measurement,setting,value
"COc1ccc(S(=O)(=O)Nc2cc(-c3c(O)ccc4ccccc34)c(O)c3ccccc23)cc1 [C188-9, N-(1′, 2-Dihydroxy-1,2′-binaphthalen-4′-yl)-4-methoxybenzenesulfonamide]","CD46 cell surface expression (MFI, flow cytometry)",[1]; high concentrations (50 μM),inhibits
same,"CD46 cell surface expression (MFI, flow cytometry)",[1]; low/mid concentrations (10 and 20 μM),stimulates
Nc1cccc2c1CN(C1CCC(=O)NC1=O)C2=O (stereo not drawn) [lenalidomide],CD46 upregulation on RPMI8226 cells,[1],upregulation
same,CD46 expression (FACS),[1],upregulation
CC#C[C@]1(O)CC[C@H]2[C@@H]3CCC4=CC(=O)CCC4=C3[C@@H](c3ccc(N(C)C)cc3)C[C@@]21C [mifepristone],"CD46 cell surface expression (MFI, flow cytometry)",[1]; mifepristone at high concentrations (50 μM),inhibits
Nc1cccc2c1C(=O)N(C1CCC(=O)NC1=O)C2=O (stereo not drawn) [pomalidomide],CD46 upregulation on RPMI8226 cells,[1],upregulation
same,CD46 expression (FACS),[1],upregulation
same,CD46 upregulation on multiple myeloma cell surface,[1]; prior exposure for a short period (7-10 days),rather persistent CD46 upregulation
"YS5 (antibody, human IgG1, lambda, V domains shown, The format used in the assay is not otherwise stated; also called YS5FL; anti-CD46 antibody YS5) VH: QVQLVQSGGGVVQPGRSLRLACAASGLTVNNYAMHWVRQAPGKGLEWVAVISYDGNNKYYADSVKGRFTISRDNSKNTLYLQMNSLRAEDTAVYYCAKGGGYFDLWGRGTLVTVSS VL: QSVLTQPPSVSGAPGQRVTISCTGSSSNIGAGYDVHWYQQLPGTAPKLLIYGNNNRPSGVPDRFSGSKSGTSASLAITGLQAEDEADYYCSSYTSGTWLFGGGTKLTVLG",binding result,[2],binds
